According to patent publication US11234943B2, “Use of reservatrol for the treatment of non-alcoholic fatty liver disease (NAFLD)” (priority 2016, dated 2022):

Legend:
[1] = test system: subjects with non-alcoholic fatty liver disease; settings: two 150 mg capsules twice daily for three months, cited from earlier work
patients with NAFLD = assay: Blood tests in 6-month study of NAFLD patients given resveratrol micronized formulation; assay type: in vivo, human; parameters: unit not given here
Protocol: In this study. 50 mg or 200 mg RSV daily were supplemented to the standard treatment of 44 patients with NAFLD for a period of 6 months and the therapeutic efficacy of RSV was investigated. All patients who participated in this process were volunteers and they have provided written consents as well filled out all the required documents. The patients were selected after they were firstly diagnosed with non-alcoholic fatty liver disease. The primary inclusion criterion was evidence of tatty liver on ultrasonography (LS), which is the most commonly, used imaging technique with remarkable sensitivity. The US findings in non-alcoholic fatty liver disease are:
Participants underwent clinical examination, electrocardiogram and abdominal ultrasound. Also, blood tests were carried out and the following parameters were measured: serum glutamic pyruvic transaminase (SGPT), serum glutamic oxaloacetic transaminase (SGOT), Alkaline phosphatase (ALP), gamma-glutamyl transpeptidase (gGT), glucose, total cholesterol levels, high-density lipoprotein (HDL), low-density lipoprotein (LDL), triglycerides (TG), insulin, insulin resistance, liver value, liver depth, kidney value, kidney depth and difference liver-kidney values.
Then, the patients were divided into two groups (randomly assigned) according to the treatment given to them. 22 patients were given treatment 50 mg RSV micronized formulation, Evelor capsules once daily, (Group A) and 22 patients were given treatment 200 mg RSV micronized formulation, Evelor capsules, once daily, (Group B). The observation period lasted for 6 months. There was a clinical examination, blood tests and an abdominal ultrasound at the beginning of the study (time 1) and in 6 months (time 2). All patients were on low fat diet and they were being followed up by nutritionist.
Two-way ANOVA with interaction (time and group) was used to test whether there are differences among dose levels, time levels and possible interaction among them. However, no significant interactions were discovered and standard two-way ANOVA was used without interactions. Moreover, an independent t-test was conducted to examine whether there were any differences between the values of physiological parameters at the beginning and the end of the study. A p-value<0.001 was considered to indicate a strongly statistically significant difference. The statistical program used was R 3.2.1.

[2] = Group A, 50 mg once daily, mean at time 1 (beginning of study)
[3] = Group A, 50 mg once daily, mean at time 2 (6 months)
[4] = Group B, 200 mg once daily, mean at time 1 (beginning of study)
[5] = Group B, 200 mg once daily, mean at time 2 (6 months)

In the case of `Oc1ccc(/C=C/c2cc(O)cc(O)c2)cc1` [Resveratrol, resveratrol], the alanine aminotransferase ([1]; compared with placebo group) is given as “significantly decreased”, the aspartate aminotransferase ([1]; compared with placebo group) is given as “significantly decreased” and the glucose ([1]; compared with placebo group) is given as “significantly decreased”. The “homeostasis model assessment insulin resistance index” value ([1]; compared with placebo group) was “significantly decreased”, the low-density lipoprotein cholesterol ([1]; compared with placebo group) was “significantly decreased” and the total cholesterol ([1]; compared with placebo group) was “significantly decreased”. The adiponectin level ([1]; resveratrol group) was “elevation”, the “level of TNF-α” value ([1]; resveratrol group) was “significant reductions” and the “level of cytokeratin 18 fragment” value ([1]; resveratrol group) was “significant reductions”. The “level of fibroblast growth factor” value ([1]; resveratrol group) was “significant reductions”, the ALP (patients with NAFLD; [2]) was 63.63 and the CH (patients with NAFLD; [2]) was 194.50. For the same compound, the GLU (patients with NAFLD; [2]) was 105.95, the HDL (patients with NAFLD; [2]) was 48.60 and the Insulin (patients with NAFLD; [2]) was 13.58. The “Insulin Resistance” value (patients with NAFLD; [2]) was 1405.81, the LDL (patients with NAFLD; [2]) was 119.45 and the SGOT (patients with NAFLD; [2]) was 24.95. It also gave an SGPT (patients with NAFLD; [2]) of 36.09, a TG (patients with NAFLD; [2]) of 132.50 and a gGT (patients with NAFLD; [2]) of 30.95. It also gave an ALP (patients with NAFLD; [3]) of 59.23, a CH (patients with NAFLD; [3]) of 185.67 and a GLU (patients with NAFLD; [3]) of 96.57. For the same compound, the HDL (patients with NAFLD; [3]) was 47.67, the Insulin (patients with NAFLD; [3]) was 12.69 and the “Insulin Resistance” value (patients with NAFLD; [3]) was 1226.04. It also gave an LDL (patients with NAFLD; [3]) of 116.19, an SGOT (patients with NAFLD; [3]) of 26.33 and an SGPT (patients with NAFLD; [3]) of 37.24. For the same compound, the TG (patients with NAFLD; [3]) was 109.76, the gGT (patients with NAFLD; [3]) was 27.00 and the ALP (patients with NAFLD; [4]) was 74.50. The CH (patients with NAFLD; [4]) was 194.27, the GLU (patients with NAFLD; [4]) was 121.18 and the HDL (patients with NAFLD; [4]) was 41.14. For the same compound, the Insulin (patients with NAFLD; [4]) was 12.62, the “Insulin Resistance” value (patients with NAFLD; [4]) was 1541.04 and the LDL (patients with NAFLD; [4]) was 118.75. The SGOT (patients with NAFLD; [4]) was 32.81, the SGPT (patients with NAFLD; [4]) was 47.05 and the TG (patients with NAFLD; [4]) was 205.13. For the same compound, the gGT (patients with NAFLD; [4]) was 29.20, the ALP (patients with NAFLD; [5]) was 71.20 and the CH (patients with NAFLD; [5]) was 181.15. The GLU (patients with NAFLD; [5]) was 112.50 and the HDL (patients with NAFLD; [5]) was 41.70.
